Source: patent US11679110B2, “Methods of treating disorders using CSF1R inhibitors” (Deciphera Pharmaceuticals, LLC, priority 2018, dated 2023)

Legend:
in vivo = conditions: Sprague-Dawley, rat
[1] = system: diffuse-type tenosynovial giant cell tumor; assay: Tumor response and symptoms in DTGCT patients (case studies), RECIST version 1.1; assay type: in vivo, human
From the text: (§1) Tumor response will be assessed by tumor type using the following criteria: for solid tumors and DTGCT: RECIST, Version 1.1; and for bone-only disease: a new lesion(s) identified by bone scan will be considered as disease progression.
Additional descriptions of case studies of patients with DTGCT treated within this study are provided below: […]

[2] = Sprague-Dawley, rat, in vivo, 4 weeks
[3] = Dose escalation 3+3 design, DLT / maximum tolerated dose in patients; assay type: in vivo, human; conditions: through Cohort 7
From the text: A minimum of 3 patients is enrolled in each dose level cohort. If a patient experiences a DLT during Cycle 1, then the cohort will be expanded to 6 patients. If ≥2 patients out of 3 to 6 patients experience one or more dose-limiting toxicities (DLT(s)) during Cycle 1, dose escalation will end, and a lower dose level cohort will be expanded for determination of the maximum tolerated dose (MTD). If no additional patients experience a DLT in the expanded cohort, the dose level will be escalated. Decisions of dose escalation and the dose level of the next cohort will be determined. A patient will be evaluable in the dose escalation phase if the patient either experienced a DLT during Cycle 1 or received ≥80% of planned doses of study drug in Cycle 1. After Dose Escalation Cohort 6, a review of safety, PK and PD data will determine future escalation cohorts. No more than 50% increases in a total dose given in the first cycle will be allowed from the previous cohort.
The MTD will be defined as the highest dose level at which no more than 1 of 6 DLT-evaluable patients experiences a DLT(s) in Cycle 1 during dose escalation. An additional, lower, intermediate dose level may be explored to determine a recommended phase 2 dose (RP2D). The RP2D will be the MTD or a biologically active or maximally feasible dose lower than the MTD. Different RP2Ds may be determined for solid tumor and DTGCT patients. […]

CSF1 = assay: Plasma CSF1 levels in patients, ELISA; assay type: in vivo, human; conditions: average at C2D1 vs C1D1
Method: PK analysis was conducted on all 38 patients. Serial blood samples were collected for PK and took place on either Day −7, Cycle 1, Day 1 (C1D1) and C2D1 at pre-dose, 0.5, 1, 2, 4, 6, 8, 10-12, and 24 hr time points or Day −7, C1D1, C1D8, and C2D1 at pre-dose, 1, 2, 4, 6, and 8 hr time points, or C1D1, C1D8, and C2D1 at pre-dose, 1, 2, 4, 6, and 8 hr time points. High fat meal was given prior to dosing of Compound 1 on Day −7. PD effects were measured by two methodologies: 1) depletion of CSF1R-expressing monocytes in peripheral blood (Cohorts 1-7) from C1D1, C1D15 and C2D1; and 2) increase of plasma levels of CSF1 and IL-34, the ligands for CSF1R (Cohorts 1-7) on C1D1, C1D15, and C2D1. For the CD16^+ monocyte assay, whole blood collected in an EDTA vacutainer was aliquoted into tubes and incubated with fluorescently-labeled antibodies (CD14-Alexa488 (BD Pharmingen); CD16-PE-Cy7 (BD Pharmingen); and TIE2-APC (R&D Systems). After incubation, red blood cells were lysed, and the remaining cells were washed several times before being analyzed on a flow cytometer. For the plasma CSF1 assay or IL-34, whole blood collected in an EDTA vacutainer was centrifuged, and the plasma was collected and frozen. Plasma levels of CSF1 or IL-34 were measured using a commercial ELISA kit (R&D Systems).

intratumoral macrophages = conditions: MC38 mice; oral QD; 21 days
advanced solid tumors = assay: Antitumor activity in patients with advanced solid tumors, RECIST 1.1; assay type: in vivo, human
From the text: The study enrolls patients with solid tumors or manifestations of cancer with known contribution of macrophages or phagocytes, i.e., tumors known to have expression of the receptor colony-stimulating factor 1 receptor (CSF1R) or its ligands, Colony stimulating factor-1 (CSF1) or interleukin (IL)-34, confirmed by the literature or prior testing. […]. In addition, tumor-associated manifestations featuring macrophage or osteoclast pathophysiology including bone metastases and ascites or effusions that typically contain high levels of macrophages will be enrolled. […].
The study consists of a screening period that is conducted within 28 days prior to the first dose of study drug, a treatment period of 28-day cycles, an End of Treatment visit, and Follow-up Safety visits at both 30 days and 75 days (±5 days) after the last dose of study drug. Patients will be eligible to receive study drug for up to 2 years until tumor progression, occurrence of unacceptable toxicity, or withdrawal of consent, or until commercial supply of the drug is available. […] Patients may continue receiving treatment after tumor progression. […]
as §1

## Cc1nc(-c2cnc(NC(C)C)n(C)c2=O)ccc1Oc1ccnc(-c2cnn(C)c2)c1 [Compound 1, 2-(isopropylamino)-3-methyl-5-(6-methyl-5-((2-(1-methyl-1H-pyrazol-4-yl)pyridin-4-yl)oxy)pyridin-2-yl)pyrimidin-4(3H)-one]
In vivo
  NOAEL at 13 weeks: 1.88 mg/kg/day
[1]; DTGCT Patient 1, Cohort 5
  symptoms: Improved pain and swelling and effusion were nearly resolved in the first cycle
[1]; DTGCT Patient 1, Cohort 5 (30 mg twice weekly maintenance), C3D1
  decrease in tumor size from baseline: 48%
[1]; DTGCT Patient 1, Cohort 5, C5D1
  decrease in tumor size from baseline: 61%
[1]; DTGCT Patient 1, Cohort 5, C7D1
  decrease in tumor size from baseline: 75%
[1]; DTGCT Patient 1, Cohort 5, C10D1
  decrease in tumor size from baseline: 84%
[1]; DTGCT Patient 2, Cohort 5
  symptoms: pain improvement, increased range of motion, and less stiffness
[1]; DTGCT Patient 2, Cohort 5, C3D1
  decrease in tumor size from baseline: 25%
[1]; DTGCT Patient 3, Cohort 5
  symptoms: rapid symptom improvement, with less pain and swelling and improved range of motion after the first cycle
[1]; DTGCT Patient 3, Cohort 5, C3D1
  decrease in tumor size from baseline: 24%
[1]; DTGCT patient
  tumor response: up to 84%
[2]
  STD10 (Severely Toxic Dose in 10% of animals): 15 mg/kg/day
[3]
  MTD: has not been reached
CSF1; Cohort 1
  increase in plasma CSF1: 6 fold
CSF1; Cohort 2
  increase in plasma CSF1: 1.5 fold
CSF1; Cohort 3
  increase in plasma CSF1: 2.9 fold
CSF1; Cohort 4
  increase in plasma CSF1: 3.2 fold
CSF1; Cohort 5
  increase in plasma CSF1: 43 fold
Intratumoral macrophages
  reduction in intratumoral macrophages compared to vehicle or isotype controls (as a percent of all cells in the tumor): > 80%
Advanced solid tumors; a patient with thymoma
  duration of stable disease: 6 months
Advanced solid tumors; advanced solid tumors, dose escalation
  patients with a best response of stable disease: 5 patients
